CCCCN1CCCCC1C(=O)Nc1c(C)cccc1C.Cl (stereo unspecified)
solubility (mole fraction)
Details | 293.15 K | 298.15 K | 303.15 K | 308.15 K | 313.15 K | 318.15 K | 323.15 K | 328.15 K | 333.15 K
in DMF | 0.0036 | 0.0049 | 0.0062 | 0.0079 | 0.0096 | 0.0117 | 0.0128 | 0.0149 | 0.0172
in acetic acid | 0.0322 | 0.0367 | 0.0399 | 0.0475 | 0.0601 | 0.0702 | 0.0879 | 0.109 | 0.13
in ethanol | 0.0087 | 0.0099 | 0.0115 | 0.0139 | 0.0169 | 0.0207 | 0.0254 | 0.0312 | 0.0372
in isopropanol | 0.002 | 0.0023 | 0.0028 | 0.0032 | 0.0037 | 0.0045 | 0.0051 | 0.006 | 0.0069
in methanol | 0.0116 | 0.014 | 0.0167 | 0.0206 | 0.0249 | 0.0295 | 0.0346 | 0.0407 | –
in n-butanol | 0.0108 | 0.0121 | 0.0142 | 0.0164 | 0.0198 | 0.0236 | 0.0288 | 0.0355 | 0.0412
in n-propanol | 0.0051 | 0.0058 | 0.0084 | 0.0101 | 0.0135 | 0.0172 | 0.0216 | 0.0281 | 0.0342
in water | 0.0017 | 0.0019 | 0.0021 | 0.0022 | 0.0025 | 0.0028 | 0.0032 | 0.0036 | 0.0041

From BigSolDB 2.1
